Results: publication doi:10.1101/2020.06.11.145995v1 (biorxiv, 2020)
Like-named read-outs stand apart in the source and are kept apart here.

How the values were obtained:
Experiment in all cases: biochemical
FYN = FYN (Homo sapiens, UniProt P06241)
KIT(V559D) = KIT(V559D) (Homo sapiens, UniProt P10721, V559D)
MLCK = MLCK (Homo sapiens, UniProt Q32MK0)
LKB1 = LKB1 (Homo sapiens, UniProt Q15831)
CDKL5 = CDKL5 (Homo sapiens, UniProt O76039)
EGFR(G719S) = EGFR(G719S) (Homo sapiens, UniProt P00533, G719S)
MLK2 = MLK2 (Homo sapiens, UniProt Q02779)
CSNK2A2 = CSNK2A2 (Homo sapiens, UniProt P19784)
FLT3(N841I) = FLT3(N841I) (Homo sapiens, UniProt P36888, N841I)
GRK1 = GRK1 (Homo sapiens, UniProt Q15835)
BRAF(V600E) = BRAF(V600E) (Homo sapiens, UniProt P15056, V600E)
MST1R = MST1R (Homo sapiens, UniProt Q04912)
LIMK2 = LIMK2 (Homo sapiens, UniProt P53671)
FGFR2 = FGFR2 (Homo sapiens, UniProt P21802)
DAPK2 = DAPK2 (Homo sapiens, UniProt Q9UIK4)
CLK1 = CLK1 (Homo sapiens, UniProt P49759)
CAMK2A = CAMK2A (Homo sapiens, UniProt Q9UQM7)
MAP3K3 = MAP3K3 (Homo sapiens, UniProt Q99759)
CDKL2 = CDKL2 (Homo sapiens, UniProt Q92772)
KIT(A829P) = KIT(A829P) (Homo sapiens, UniProt P10721, A829P)
FGFR4 = FGFR4 (Homo sapiens, UniProt P22455)
FLT3(K663Q) = FLT3(K663Q) (Homo sapiens, UniProt P36888, K663Q)
ADCK3 = ADCK3 (Homo sapiens, UniProt Q8NI60)
ERN1 = ERN1 (Homo sapiens, UniProt O75460)
CSK = CSK (Homo sapiens, UniProt P41240)
DDR1 = DDR1 (Homo sapiens, UniProt Q08345)
AMPK-alpha2 = AMPK-alpha2 (Homo sapiens, UniProt P54646)
ASK1 = ASK1 (Homo sapiens, UniProt Q99683)
MAST1 = MAST1 (Homo sapiens, UniProt Q9Y2H9)
[1] = read-out: CPT-1-70-1 (1uM) % control
[2] = read-out: HYJ-2-002-1 (1uM) % control

Sequence of CAMK2A (Q9UQM7 whole entry): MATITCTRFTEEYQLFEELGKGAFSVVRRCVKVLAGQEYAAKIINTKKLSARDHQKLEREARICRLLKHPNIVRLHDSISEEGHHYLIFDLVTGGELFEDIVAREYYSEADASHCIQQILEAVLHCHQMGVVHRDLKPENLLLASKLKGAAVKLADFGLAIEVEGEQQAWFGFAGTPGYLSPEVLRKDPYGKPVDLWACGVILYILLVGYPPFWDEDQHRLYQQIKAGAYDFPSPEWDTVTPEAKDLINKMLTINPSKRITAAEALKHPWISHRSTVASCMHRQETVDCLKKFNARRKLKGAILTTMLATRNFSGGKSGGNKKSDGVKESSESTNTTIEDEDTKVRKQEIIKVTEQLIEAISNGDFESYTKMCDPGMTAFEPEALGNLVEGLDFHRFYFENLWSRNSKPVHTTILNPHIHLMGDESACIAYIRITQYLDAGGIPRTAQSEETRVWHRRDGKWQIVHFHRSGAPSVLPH
Sequence of FYN (P06241 whole entry): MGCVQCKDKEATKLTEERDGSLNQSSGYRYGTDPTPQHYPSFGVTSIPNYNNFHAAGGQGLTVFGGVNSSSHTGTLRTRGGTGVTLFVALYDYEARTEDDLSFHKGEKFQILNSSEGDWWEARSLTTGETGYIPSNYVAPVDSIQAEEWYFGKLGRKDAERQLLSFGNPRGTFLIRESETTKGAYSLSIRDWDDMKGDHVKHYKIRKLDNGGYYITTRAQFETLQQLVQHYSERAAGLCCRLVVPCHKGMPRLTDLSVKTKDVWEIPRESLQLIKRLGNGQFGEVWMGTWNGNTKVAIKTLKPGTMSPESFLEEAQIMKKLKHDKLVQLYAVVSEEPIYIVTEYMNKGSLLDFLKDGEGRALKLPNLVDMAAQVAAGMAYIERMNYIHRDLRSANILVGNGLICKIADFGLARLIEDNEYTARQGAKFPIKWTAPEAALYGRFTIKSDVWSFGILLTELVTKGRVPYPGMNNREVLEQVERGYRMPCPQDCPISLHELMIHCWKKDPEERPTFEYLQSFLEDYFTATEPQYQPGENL
Sequence of GRK1 (Q15835 whole entry): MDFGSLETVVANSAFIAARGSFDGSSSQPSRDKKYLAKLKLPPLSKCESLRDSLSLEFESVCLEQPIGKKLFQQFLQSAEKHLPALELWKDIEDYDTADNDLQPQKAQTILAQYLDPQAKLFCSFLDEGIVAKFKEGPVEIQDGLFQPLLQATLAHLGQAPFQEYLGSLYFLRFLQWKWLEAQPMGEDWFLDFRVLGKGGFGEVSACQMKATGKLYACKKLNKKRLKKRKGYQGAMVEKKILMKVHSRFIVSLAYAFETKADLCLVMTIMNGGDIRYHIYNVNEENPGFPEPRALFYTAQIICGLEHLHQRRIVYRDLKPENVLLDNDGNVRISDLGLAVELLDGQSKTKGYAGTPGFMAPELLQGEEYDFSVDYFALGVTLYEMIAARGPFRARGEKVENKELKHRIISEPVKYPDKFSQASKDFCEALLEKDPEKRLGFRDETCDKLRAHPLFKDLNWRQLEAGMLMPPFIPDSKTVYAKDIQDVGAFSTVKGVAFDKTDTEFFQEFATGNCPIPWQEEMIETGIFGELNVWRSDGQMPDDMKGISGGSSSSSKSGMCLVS
Sequence of CSK (P41240 whole entry): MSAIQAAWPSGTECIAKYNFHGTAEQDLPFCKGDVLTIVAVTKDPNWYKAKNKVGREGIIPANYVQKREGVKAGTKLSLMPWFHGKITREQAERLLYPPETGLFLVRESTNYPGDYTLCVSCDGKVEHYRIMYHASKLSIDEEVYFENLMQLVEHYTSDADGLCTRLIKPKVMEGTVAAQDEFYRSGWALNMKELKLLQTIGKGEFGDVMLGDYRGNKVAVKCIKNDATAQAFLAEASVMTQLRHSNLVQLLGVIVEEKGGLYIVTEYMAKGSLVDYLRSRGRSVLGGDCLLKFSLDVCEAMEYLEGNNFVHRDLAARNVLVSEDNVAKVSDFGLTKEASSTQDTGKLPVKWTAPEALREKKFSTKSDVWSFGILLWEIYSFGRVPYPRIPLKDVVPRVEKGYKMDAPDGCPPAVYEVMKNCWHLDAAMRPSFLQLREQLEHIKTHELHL
Sequence of ERN1 (O75460 whole entry): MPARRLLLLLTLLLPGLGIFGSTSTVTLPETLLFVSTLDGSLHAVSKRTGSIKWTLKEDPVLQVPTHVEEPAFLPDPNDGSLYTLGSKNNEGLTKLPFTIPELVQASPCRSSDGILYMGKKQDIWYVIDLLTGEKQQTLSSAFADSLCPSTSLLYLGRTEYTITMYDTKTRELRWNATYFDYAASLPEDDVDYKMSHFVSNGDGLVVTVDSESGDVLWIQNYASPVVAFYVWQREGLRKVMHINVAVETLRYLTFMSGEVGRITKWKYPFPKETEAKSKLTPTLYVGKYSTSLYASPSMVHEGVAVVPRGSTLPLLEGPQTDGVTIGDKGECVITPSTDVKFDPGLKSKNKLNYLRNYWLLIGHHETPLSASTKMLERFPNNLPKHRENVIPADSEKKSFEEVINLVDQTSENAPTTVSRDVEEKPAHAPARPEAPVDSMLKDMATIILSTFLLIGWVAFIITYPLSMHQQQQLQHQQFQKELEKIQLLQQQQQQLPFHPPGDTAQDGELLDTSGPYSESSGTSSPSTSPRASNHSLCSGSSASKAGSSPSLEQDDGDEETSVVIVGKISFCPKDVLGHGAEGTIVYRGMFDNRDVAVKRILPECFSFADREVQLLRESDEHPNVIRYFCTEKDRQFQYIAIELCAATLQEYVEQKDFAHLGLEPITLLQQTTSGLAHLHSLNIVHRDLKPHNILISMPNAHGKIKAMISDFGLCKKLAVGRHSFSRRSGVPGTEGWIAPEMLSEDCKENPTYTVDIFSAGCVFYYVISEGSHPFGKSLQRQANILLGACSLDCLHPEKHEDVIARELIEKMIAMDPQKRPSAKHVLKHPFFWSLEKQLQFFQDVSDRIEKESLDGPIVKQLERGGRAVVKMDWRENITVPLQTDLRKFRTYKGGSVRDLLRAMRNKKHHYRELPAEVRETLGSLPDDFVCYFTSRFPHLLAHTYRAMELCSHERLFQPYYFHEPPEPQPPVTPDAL
Sequence of MAST1 (Q9Y2H9 whole entry): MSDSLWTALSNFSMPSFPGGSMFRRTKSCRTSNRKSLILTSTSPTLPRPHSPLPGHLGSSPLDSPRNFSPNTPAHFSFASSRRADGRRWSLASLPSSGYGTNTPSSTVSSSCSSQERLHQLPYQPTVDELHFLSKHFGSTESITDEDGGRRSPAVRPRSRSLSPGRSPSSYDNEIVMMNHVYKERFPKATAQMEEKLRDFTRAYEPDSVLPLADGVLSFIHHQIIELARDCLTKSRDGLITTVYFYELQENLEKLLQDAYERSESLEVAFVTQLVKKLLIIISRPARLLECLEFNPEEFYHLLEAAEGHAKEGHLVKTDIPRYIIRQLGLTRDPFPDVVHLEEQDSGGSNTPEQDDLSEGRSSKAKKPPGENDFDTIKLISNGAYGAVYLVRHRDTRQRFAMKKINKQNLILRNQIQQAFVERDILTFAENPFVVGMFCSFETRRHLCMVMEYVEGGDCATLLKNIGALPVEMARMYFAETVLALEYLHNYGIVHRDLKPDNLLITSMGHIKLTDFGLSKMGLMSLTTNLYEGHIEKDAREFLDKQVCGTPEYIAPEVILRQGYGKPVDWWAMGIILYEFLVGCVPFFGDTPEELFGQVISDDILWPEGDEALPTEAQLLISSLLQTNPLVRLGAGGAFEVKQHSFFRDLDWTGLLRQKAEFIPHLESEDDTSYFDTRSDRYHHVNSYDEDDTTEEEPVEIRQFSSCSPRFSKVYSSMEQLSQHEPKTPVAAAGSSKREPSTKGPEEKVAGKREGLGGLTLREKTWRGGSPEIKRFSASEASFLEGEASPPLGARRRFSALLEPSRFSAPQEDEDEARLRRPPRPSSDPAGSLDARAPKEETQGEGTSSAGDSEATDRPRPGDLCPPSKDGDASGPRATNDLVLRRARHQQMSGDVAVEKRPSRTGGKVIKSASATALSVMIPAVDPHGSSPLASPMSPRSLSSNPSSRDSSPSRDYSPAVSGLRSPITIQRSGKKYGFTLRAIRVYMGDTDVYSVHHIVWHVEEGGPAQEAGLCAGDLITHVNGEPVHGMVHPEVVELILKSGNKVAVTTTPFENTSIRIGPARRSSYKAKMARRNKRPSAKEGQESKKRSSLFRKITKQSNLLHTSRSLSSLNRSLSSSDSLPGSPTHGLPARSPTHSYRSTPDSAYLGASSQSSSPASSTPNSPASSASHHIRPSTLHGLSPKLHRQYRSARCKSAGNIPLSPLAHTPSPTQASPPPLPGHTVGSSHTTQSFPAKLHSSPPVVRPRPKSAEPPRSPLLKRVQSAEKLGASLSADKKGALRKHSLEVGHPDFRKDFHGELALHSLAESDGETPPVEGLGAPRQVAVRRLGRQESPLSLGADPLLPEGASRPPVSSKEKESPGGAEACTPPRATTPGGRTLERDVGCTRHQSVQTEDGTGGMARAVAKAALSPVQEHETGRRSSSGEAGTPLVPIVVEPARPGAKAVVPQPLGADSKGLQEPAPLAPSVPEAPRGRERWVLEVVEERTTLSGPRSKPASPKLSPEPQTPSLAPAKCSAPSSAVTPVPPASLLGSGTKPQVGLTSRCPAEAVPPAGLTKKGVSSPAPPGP
Sequence of CSNK2A2 (P19784 whole entry): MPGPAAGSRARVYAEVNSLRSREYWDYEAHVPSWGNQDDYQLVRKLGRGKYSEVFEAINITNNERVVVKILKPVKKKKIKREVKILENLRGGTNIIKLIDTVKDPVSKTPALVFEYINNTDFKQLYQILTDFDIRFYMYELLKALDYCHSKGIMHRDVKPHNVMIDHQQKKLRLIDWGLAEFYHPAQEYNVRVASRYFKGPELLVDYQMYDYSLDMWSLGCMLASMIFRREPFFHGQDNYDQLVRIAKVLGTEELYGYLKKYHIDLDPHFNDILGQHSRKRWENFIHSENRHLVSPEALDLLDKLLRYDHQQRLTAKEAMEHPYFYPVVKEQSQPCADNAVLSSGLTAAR

## CN1CCN(c2ccc(Nc3nc(Oc4ccc(NC(=O)CCl)cc4)c4cc[nH]c4n3)cc2)CC1 [CPT1-70-1]
FYN; [1]
  remaining activity at 1 µM: 90%
KIT(V559D); [1]
  remaining activity at 1 µM: 15%
MLCK; [1]
  remaining activity at 1 µM: 100%
LKB1; [1]
  remaining activity at 1 µM: 76%
CDKL5; [1]
  remaining activity at 1 µM: 100%
EGFR(G719S); [1]
  remaining activity at 1 µM: 34%
MLK2; [1]
  remaining activity at 1 µM: 56%
CSNK2A2; [1]
  remaining activity at 1 µM: 28%
FLT3(N841I); [1]
  remaining activity at 1 µM: 1.2%
GRK1; [1]
  remaining activity at 1 µM: 82%
BRAF(V600E); [1]
  remaining activity at 1 µM: 100%
MST1R; [1]
  remaining activity at 1 µM: 100%
LIMK2; [1]
  remaining activity at 1 µM: 100%
FGFR2; [1]
  remaining activity at 1 µM: 22%
DAPK2; [1]
  remaining activity at 1 µM: 88%
CLK1; [1]
  remaining activity at 1 µM: 5.8%
CAMK2A; [1]
  remaining activity at 1 µM: 95%
MAP3K3; [1]
  remaining activity at 1 µM: 16%
CDKL2; [1]
  remaining activity at 1 µM: 11%
KIT(A829P); [1]
  remaining activity at 1 µM: 75%
FGFR4; [1]
  remaining activity at 1 µM: 60%
FLT3(K663Q); [1]
  remaining activity at 1 µM: 2.4%
ADCK3; [1]
  remaining activity at 1 µM: 100%
ERN1; [1]
  remaining activity at 1 µM: 69%
CSK; [1]
  remaining activity at 1 µM: 93%
DDR1; [1]
  remaining activity at 1 µM: 79%
AMPK-alpha2; [1]
  remaining activity at 1 µM: 41%
ASK1; [1]
  remaining activity at 1 µM: 100%
MAST1; [1]
  remaining activity at 1 µM: 100%

## CCN1CCN(Cc2ccc(NC(=O)c3ccc(C)c(CCc4cnc5[nH]ccc5c4OC)c3)cc2C(F)(F)F)CC1 [HYJ-2-002-1]
FYN; [2]
  remaining activity at 1 µM: 2.2%
KIT(V559D); [2]
  remaining activity at 1 µM: 0%
MLCK; [2]
  remaining activity at 1 µM: 89%
LKB1; [2]
  remaining activity at 1 µM: 100%
CDKL5; [2]
  remaining activity at 1 µM: 100%
EGFR(G719S); [2]
  remaining activity at 1 µM: 1.8%
MLK2; [2]
  remaining activity at 1 µM: 93%
CSNK2A2; [2]
  remaining activity at 1 µM: 100%
FLT3(N841I); [2]
  remaining activity at 1 µM: 1.5%
GRK1; [2]
  remaining activity at 1 µM: 100%
BRAF(V600E); [2]
  remaining activity at 1 µM: 1.2%
MST1R; [2]
  remaining activity at 1 µM: 100%
LIMK2; [2]
  remaining activity at 1 µM: 32%
FGFR2; [2]
  remaining activity at 1 µM: 5.7%
DAPK2; [2]
  remaining activity at 1 µM: 92%
CLK1; [2]
  remaining activity at 1 µM: 57%
CAMK2A; [2]
  remaining activity at 1 µM: 100%
MAP3K3; [2]
  remaining activity at 1 µM: 1.6%
CDKL2; [2]
  remaining activity at 1 µM: 2.3%
KIT(A829P); [2]
  remaining activity at 1 µM: 61%
FGFR4; [2]
  remaining activity at 1 µM: 4.4%
FLT3(K663Q); [2]
  remaining activity at 1 µM: 1.6%
ADCK3; [2]
  remaining activity at 1 µM: 100%
ERN1; [2]
  remaining activity at 1 µM: 100%
CSK; [2]
  remaining activity at 1 µM: 0.8%
DDR1; [2]
  remaining activity at 1 µM: 0%
AMPK-alpha2; [2]
  remaining activity at 1 µM: 100%
ASK1; [2]
  remaining activity at 1 µM: 96%
MAST1; [2]
  remaining activity at 1 µM: 99%
